Experimental data as given in patent US20250230193A1, “CYCLIC COMPOUND HAVING SELECTIVE KRAS INHIBITORY EFFECT ON HRAS AND NRAS” (CHUGAI SEIYAKU KABUSHIKI KAISHA, priority 2022, published 2025).

Key:
[1] = tested on: human lung cancer strain NCI-H441; assay: cells; settings: NCI-H441, 96 h, read-out: NCI-H441 IC50 (nM)
[2] = molecular target: GDP-bound HRAS wild-type protein (Homo sapiens, UniProt P01112); assay: Binding to HRAS by surface plasmon resonance (SPR), Single Cycle Kinetics; settings: SPR; KD ratio class
Chain of GDP-bound HRAS wild-type protein (P01112 whole entry): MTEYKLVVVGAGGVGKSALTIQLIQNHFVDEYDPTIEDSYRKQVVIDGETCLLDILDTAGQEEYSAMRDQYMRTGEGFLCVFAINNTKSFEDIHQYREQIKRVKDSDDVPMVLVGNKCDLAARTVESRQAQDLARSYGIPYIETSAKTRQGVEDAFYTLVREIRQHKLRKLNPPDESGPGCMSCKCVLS

[3] = molecular target: GDP-bound NRAS wild-type protein (Homo sapiens, UniProt P01111); assay: Binding to NRAS by surface plasmon resonance (SPR), Single Cycle Kinetics; settings: SPR; KD ratio class
Chain of GDP-bound NRAS wild-type protein (P01111 whole entry): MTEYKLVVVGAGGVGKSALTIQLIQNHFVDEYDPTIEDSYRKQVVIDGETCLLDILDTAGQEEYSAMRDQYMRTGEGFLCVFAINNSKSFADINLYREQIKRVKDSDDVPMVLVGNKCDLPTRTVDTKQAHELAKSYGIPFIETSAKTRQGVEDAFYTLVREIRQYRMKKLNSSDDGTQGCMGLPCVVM

Structure (SMILES)	IC50 [1] [nM]	HRAS/KRAS (ratio of KD value for GDP-bound HRAS wild-type protein to KD value for KRAS) [2]	NRAS/KRAS (ratio of KD value for GDP-bound NRAS wild-type protein to KD value for KRAS) [3]
CC[C@H](C)[C@@H]1NC(=O)[C@H](CC2CC2)N(C)C(=O)C[C@@H](C(=O)N(CC)CC)N(C)C(=O)[C@H](C2CCCC2)N(C)C(=O)C2(CC(C)(C)C2)NC(=O)[C@@H]2C[C@@H](F)CN2C(=O)[C@H](CCc2cc(F)c(C(F)(F)F)c(F)c2)NC(=O)CN(C)C(=O)[C@H](Cc2ccc(C(F)(F)F)cc2)N2CC/C=C\C[C@@H](C2=O)N(C)C(=O)CN(C)C1=O [PP1571]	6.8	A (a compound having 10 or more and less than 20 is denoted as A)	A (a compound having 10 or more and less than 20 is denoted as A)
CCCOC[C@H]1C(=O)N[C@@H]([C@@H](C)CC)C(=O)N(C)CC(=O)N(C)[C@H]2C/C=C\CCN(C2=O)[C@@H](Cc2ccc(C(F)(F)F)cc2)C(=O)N(C)CC(=O)N[C@@H](CCc2cc(F)c(C(F)(F)F)c(F)c2)C(=O)N2C[C@H](OCC)C[C@H]2C(=O)NC2(CC(C)(C)C2)C(=O)N(C)[C@@H](C2CCCC2)C(=O)N(C)[C@H](C(=O)N(C)CC)CC(=O)N1C [PP1572]	3.6	A (a compound having 10 or more and less than 20 is denoted as A)	A (a compound having 10 or more and less than 20 is denoted as A)
CCO[C@@H]1C[C@H]2C(=O)NC3(CCC3)C(=O)N(C)[C@@H](C3CCCC3)C(=O)N(C)[C@H](C(=O)N(C)CC)CC(=O)N(C)[C@@H](CC3CCCC3)C(=O)N[C@@H]([C@@H](C)CC)C(=O)N(C)CC(=O)N(C)[C@H]3C/C=C\CCN(C3=O)[C@@H](Cc3ccc(C(F)(F)F)cc3)C(=O)N(C)CC(=O)N[C@@H](CCc3ccc(C(F)(F)F)c(OC)c3)C(=O)N2C1 [PP1573]	5.2	A (a compound having 10 or more and less than 20 is denoted as A)	A (a compound having 10 or more and less than 20 is denoted as A)
CCCOC[C@H]1C(=O)N[C@@H]([C@@H](C)CC)C(=O)N(C)CC(=O)N(C)[C@H]2C/C=C\CCN(C2=O)[C@@H](Cc2ccc(C(F)(F)F)cc2)C(=O)N(C)CC(=O)N[C@@H](CCc2cc(F)c(C(F)(F)F)c(F)c2)C(=O)N2C[C@H](OCC)C[C@H]2C(=O)NC2(CC(C)(C)C2)C(=O)N(C)[C@@H](C2CCCC2)C(=O)N(C)[C@H](C(=O)N(CC)CC)CC(=O)N1C [PP1575]	11.1	B (a compound having 3 or more and less than 10 is denoted as B)	B (a compound having 3 or more and less than 10 is denoted as B)
CCCC[C@H]1C(=O)N[C@@H]([C@@H](C)CC)C(=O)N(C)CC(=O)N(C)[C@H]2C/C=C\CCN(C2=O)[C@@H](Cc2ccc(C(F)(F)F)cc2)C(=O)N(C)CC(=O)N[C@@H](CCc2cc(F)c(C(F)(F)F)c(F)c2)C(=O)N2C[C@H](OCC)C[C@H]2C(=O)NC2(CCC2)C(=O)N(C)[C@@H](C2CCCC2)C(=O)N(C)[C@H](C(=O)N(CC)CC)CC(=O)N1C [PP1576]	7.6	A (a compound having 10 or more and less than 20 is denoted as A)	AA (a compound having 20 or more is denoted as AA)
CCCOC[C@H]1C(=O)N[C@@H]([C@@H](C)CC)C(=O)N(C)CC(=O)N(C)[C@H]2C/C=C\CCN(C2=O)[C@@H](Cc2ccc(C)cc2)C(=O)N(C)CC(=O)N[C@@H](CCc2cc(F)c(C(F)(F)F)c(F)c2)C(=O)N2C[C@H](OCC)C[C@H]2C(=O)NC2(CC(C)(C)C2)C(=O)N(C)[C@@H](C2CCCC2)C(=O)N(C)[C@H](C(=O)N(C)CC)CC(=O)N1C [PP1577]	6.7	B (a compound having 3 or more and less than 10 is denoted as B)	B (a compound having 3 or more and less than 10 is denoted as B)
CCCOC[C@H]1C(=O)N[C@@H]([C@@H](C)CC)C(=O)N(C)CC(=O)N(C)[C@H]2C/C=C\CCN(C2=O)[C@@H](Cc2ccc(C)cc2)C(=O)N(C)CC(=O)N[C@@H](CCc2cc(F)c(C(F)(F)F)c(F)c2)C(=O)N2C[C@H](OCC)C[C@H]2C(=O)NC2(CC(C)(C)C2)C(=O)N(C)[C@@H](C2CCCC2)C(=O)N(C)[C@H](C(=O)N(CC)CC)CC(=O)N1C [PP1578]	12.6	A (a compound having 10 or more and less than 20 is denoted as A)	A (a compound having 10 or more and less than 20 is denoted as A)
CCO[C@@H]1C[C@H]2C(=O)NC3(CC(C)(C)C3)C(=O)N(C)[C@@H](C3CCCC3)C(=O)N(C)[C@H](C(=O)N(C)CC)CC(=O)N(C)[C@@H](CC)C(=O)N[C@@H]([C@@H](C)CC)C(=O)N(C)CC(=O)N(C)[C@H]3C/C=C\CCN(C3=O)[C@@H](Cc3ccc(C(F)(F)F)cc3)C(=O)N(C)CC(=O)N[C@@H](CCc3cc(F)c(C(F)(F)F)c(F)c3)C(=O)N2C1 [PP1579]	4.1	B (a compound having 3 or more and less than 10 is denoted as B)	A (a compound having 10 or more and less than 20 is denoted as A)
CCO[C@@H]1C[C@H]2C(=O)NC3(CC(C)(C)C3)C(=O)N(C)[C@@H](C3CCCC3)C(=O)N(C)[C@H](C(=O)N(CC)CC)CC(=O)N(C)[C@@H](CC)C(=O)N[C@@H]([C@@H](C)CC)C(=O)N(C)CC(=O)N(C)[C@H]3C/C=C\CCN(C3=O)[C@@H](Cc3ccc(C(F)(F)F)cc3)C(=O)N(C)CC(=O)N[C@@H](CCc3cc(F)c(C(F)(F)F)c(F)c3)C(=O)N2C1 [PP1580]	9.7	A (a compound having 10 or more and less than 20 is denoted as A)	A (a compound having 10 or more and less than 20 is denoted as A)
CCO[C@@H]1C[C@H]2C(=O)NC3(CCC3)C(=O)N(C)[C@@H](C3CCCC3)C(=O)N(C)[C@H](C3CCCCC3)CC(=O)N(C)[C@@H](COC)C(=O)N[C@@H]([C@@H](C)CC)C(=O)N(C)CC(=O)N(C)[C@H]3C/C=C\CCN(C3=O)[C@@H](Cc3ccc(C(F)(F)F)cc3)C(=O)N(C)CC(=O)N[C@@H](CCc3cc(F)c(C(F)(F)F)c(F)c3)C(=O)N2C1 [PP1584]	66.4	B (a compound having 3 or more and less than 10 is denoted as B)	B (a compound having 3 or more and less than 10 is denoted as B)
CCO[C@@H]1C[C@H]2C(=O)NC3(CC(C)(C)C3)C(=O)N(C)[C@@H](C3CCCC3)C(=O)N(C)[C@H](C(C)C)CC(=O)N(C)[C@@H](CC)C(=O)N[C@@H]([C@@H](C)CC)C(=O)N(C)CC(=O)N(C)[C@H]3C/C=C\CCN(C3=O)[C@@H](Cc3ccc(C(F)(F)F)cc3)C(=O)N(C)CC(=O)N[C@@H](CCc3cc(F)c(C(F)(F)F)c(F)c3)C(=O)N2C1 [PP1588]	24.2	B (a compound having 3 or more and less than 10 is denoted as B)	B (a compound having 3 or more and less than 10 is denoted as B)
CCO[C@@H]1C[C@H]2C(=O)NC3(CC(C)(C)C3)C(=O)N(C)[C@@H](C3CCCC3)C(=O)N(C)[C@@H](C(C)C)CC(=O)N(C)[C@@H](CC3CC3)C(=O)N[C@@H]([C@@H](C)CC)C(=O)N(C)CC(=O)N(C)[C@H]3C/C=C\CCN(C3=O)[C@@H](Cc3ccc(C(F)(F)F)cc3)C(=O)N(C)CC(=O)N[C@@H](CCc3cc(F)c(C(F)(F)F)c(F)c3)C(=O)N2C1 [PP1594]	48.8	A (a compound having 10 or more and less than 20 is denoted as A)	A (a compound having 10 or more and less than 20 is denoted as A)
CCO[C@@H]1C[C@H]2C(=O)NC3(CCC3)C(=O)N(C)[C@@H](C3CCCC3)C(=O)N(C)[C@H](C(C)C)CC(=O)N(C)[C@@H](CC)C(=O)N[C@@H]([C@@H](C)CC)C(=O)N(C)CC(=O)N(C)[C@H]3C/C=C\CCN(C3=O)[C@@H](CC3CCCCC3)C(=O)N(C)CC(=O)N[C@@H](CCc3cc(F)c(C(F)(F)F)c(F)c3)C(=O)N2C1 [PP1601]	78.6	A (a compound having 10 or more and less than 20 is denoted as A)	B (a compound having 3 or more and less than 10 is denoted as B)
CCO[C@@H]1C[C@H]2C(=O)NC3(CC(C)(C)C3)C(=O)N(C)[C@@H](C3CCCC3)C(=O)N(C)[C@H](C(C)C)CC(=O)N(C)[C@@H](CC)C(=O)N[C@@H]([C@@H](C)CC)C(=O)N(C)CC(=O)N(C)[C@H]3C/C=C\CCN(C3=O)[C@@H](CC3CCCCC3)C(=O)N(C)CC(=O)N[C@@H](CCc3cc(F)c(C(F)(F)F)c(F)c3)C(=O)N2C1 [PP1603]	132	B (a compound having 3 or more and less than 10 is denoted as B)	B (a compound having 3 or more and less than 10 is denoted as B)
